We go through four compounds from paper PMC9576799, “Discovery of small molecule inhibitors that effectively disrupt IQGAP1-Cdc42 interaction in breast cancer cells” (Scientific Reports, 2022).

Series [1] deals with MDA-MB-231 cells. The series can be described thus: IncuCyte proliferation assay, MDA-MB-231. It is filed as cell-based, human. The conditions noted are these: 72 h; for effect on proliferation: up to 50 µM. Here is the method: (§1) MDA-MB-231 and MCF7 cells were grown to confluence, detached using trypsin–EDTA cell dissociation buffer (Gibco 12604013) and counted. Cells were plated into 384-well, clear-bottom, black, tissue culture treated plates (Corning 3683) using an automatic dispenser (Thermo Multidrop Combi SMART) at densities of 2000 cells/10 µL/well for MDA-MB-231 cells and 4000 cells/10 µL/well for MCF7 cells in DMEM supplemented with 5% FBS. After 4 h incubation at 37 °C with 5% CO2, the growth medium was replaced with 10 µL medium containing compounds at 16-point 1:2 serial dilutions with the final highest concentration of 50 µM for each compound. All samples containing compounds were plated in triplicate. Cells in the first column of the plate were treated with 0.5% DMSO as control. The plates were placed into an Incucyte SX5 Live-cell imaging system (Sartorius) and phase images were taken at 6-h intervals for 72 h with 10X objective lens. The growth medium containing compounds or DMSO was replenished after 24 h. The images were analyzed, and the growth curves generated by the Incucyte software 2020A using the basic analyzer mode.

A further series addresses T1, GST-Cdc42-Q61L-His (Homo sapiens, UniProt P60953, Q61L).
T1 construct: His (hexa-histidine in the Results); made in house; host or cells: Escherichia coli BL-21
The series can be described thus: HTRF counter-screen with double-tagged Cdc42. The conditions noted are these: 100 nM GST-Cdc42-Q61L-His. As for the experimental part:
Two different HTRF counter-screens were used to identify false positive hits. The two interacting proteins GST-IQGAP1-C and His-Cdc42-Q61L were replaced with His-tagged GST or Cdc42-Q61L containing GST at the N-terminus and His at the C-terminus (GST-Cdc42-Q61L-His).
First, GST-Cdc42-Q61L-His was titrated in parallel with the pre-mixed His-Cdc42-Q61L and GST-IQGAP1-C to comparatively match the signal level to the signal of the primary HTRF assay. We chose 100 nM GST-Cdc42-Q61L-His protein as the final concentration for the counter-screen. The assay protocol is outlined in Supplementary Table S2 online. Briefly, 4 μL/well of […] diluted in binding buffer was dispensed to the plates, followed by pinning 23 nL/well of selected hit compounds from the primary screening and addition of 2 μL/well premixed HTRF antibodies. After 3 h, 1 μL/well of 2.8 M potassium fluoride was added to the assay and the fluorescence signal was read on the Envision instrument. For controls, we used pre-mixed proteins GST-IQGAP1-C and His-Cdc42-Q61L (primary assay’s regular conditions) as IC100, and […] at 1.5 nM final concentration as IC0.
Supplementary Table S2: Counter-screening HTRF protocol.
Step Parameter Value Description
1a Protein 4 µL 100 nM His-GST (final concentration), diluted in
1b Controls 4 µL Column 2: GST-IQGAP1-C protein only [1.5nM] final
Column 3: pre-mixed proteins (regular assay
2 Compounds 23 nL Selected compounds were pin-transferred from DMSO
HTRF α-His-XL (5 ng/µL, 3X working concentration) +
3 antibodies 2 µL α-GST-K (0.7 ng/µL 3X working concentration),
pre-mix mixed in binding buffer
4 Time 3 Incubation (ambient temperature)
5 Reagent 1 µL 2.8 M KF (7x)
6 Detector HTRF Envision plate reader (excitation: 340 nm, emission: […]

For another series, the target named is T2, His-Cdc42 (Homo sapiens, UniProt P60953, Q61L).
T2 construct: made in house; host or cells: E. coli
The series can be described thus: Microscale thermophoresis (MST). The class given is binding. The note with it: for effect on thermophoretic motion of Cdc42 / Kd: MST; for effect on thermophoretic motion of Cdc42: 500 µM to 244 nM; for Kd: 100 nM labeled His-Cdc42, n = 3. As for the experimental part: Two-fold serial dilutions of compounds were first prepared in DMSO, then further diluted in PBS containing 0.05% Tween-20. […] Samples were loaded into Monolith™ standard capillaries and measured using Monolith NT.115 (Nanotemper Technologies) with 50% excitation power and 50% MST power, with laser on and off times of 30 s and 5 s, respectively. The Kd values were calculated by evaluating the thermophoresis and T-Jump signals using MO.Affinity Analysis software (Nanotemper Technologies). All experiments were conducted in three biological replicates.
(In general: In MST a laser heats a spot of the sample, and binding alters the fluorescence response.)

The subject of a further series is MCF7 cells. The series can be described thus: IncuCyte proliferation assay, MCF7. The class given is cell-based, human. The conditions noted are these: 72 h; for effect on proliferation: up to 50 µM. Here is the method:
as §1

In series [2] the test system is MDA-MB-231 cells. The series can be described thus: Scratch wound migration assay. The note with it: for cell migration maximum efficiency / EC50: scratch wound, 72 h; for EC50: read-out: cell migration EC50. It is filed as cell-based, human. As for the experimental part:
MDA-MB-231 cells were grown to confluence and plated into a 96-well clear plate (Sartorius 4379) at 30,000 cells/100 µL/well in DMEM supplemented with 5% FBS. Cells were incubated at 37 °C with 5% CO2 overnight. Even wounds were created using a 96-pin wound device (Sartorius 4493) following the manufacturer’s protocol. Medium was then aspirated, and the cells were washed once with PBS pH 7.4 before adding 100 µL/well of fresh growth medium. Then 100 µL/well of growth medium containing compounds at an 8-point 1:2 titration dispensed into the cell plate resulting a final highest concentration of 50 µM for each compound. 0.5% DMSO was used as control. All samples were plated in triplicate. The plate was placed into an Incucyte SX5 Live-cell imaging system and phase images were taken in 2-h intervals for 72 h using the scratch wound setting. Medium was aspirated and replaced with a fresh medium containing compounds or DMSO after 24 h. The images were analyzed, and the wound density curves generated by the Incucyte software 2020A using the scratch wound analysis option.

Series [3] relates to endogenous IQGAP1/Cdc42 interaction. The series can be described thus: Immunoprecipitation of endogenous IQGAP1 and co-precipitated Cdc42 in HEK293 cell lysates. The note with it: 0.2-50 µM. It is filed as binding. Here is the method: Each compound was added to lysates from HEK293 cells at a final concentration of 50 µM and endogenous IQGAP1 was immunoprecipitated. DMSO alone was used as the negative control (100% binding).
HEK293 cells were plated in 10-cm dishes to reach 80% confluence. The following day, the cells were washed with ice-cold phosphate-buffered saline (PBS) and lysed with 500 µl of Buffer A (50 mM Tris–HCl, pH 7.4, 150 mM NaCl, and 1% Triton X-100) supplemented with complete protease and phosphatase inhibitors (Roche, Mannheim, Germany). Lysates were subjected to two rounds of sonication for 10 s each, and insoluble material was precipitated by centrifugation at 13,000 xg for 10 min at 4 °C. Supernatants were precleared with protein A-Sepharose beads for 1 h. DMSO (vehicle) or different concentrations of the compounds (0.2, 0.6, 1, 5, 16 or 50 µM) were added to equal amounts of protein lysates for 30 min. Protein A-Sepharose beads and anti-IQGAP1 polyclonal antibodies were then added for 2 h at 4 °C. Anti-rabbit IgG antibodies were used as the immunoprecipitation control. Samples were washed five times with Buffer A, resolved by SDS-PAGE and transferred to polyvinylidene fluoride (PVDF) membranes (Millipore Corp). Membranes were probed with anti-IQGAP1 and anti-Cdc42 antibodies. After secondary antibody detection, Western blots were imaged using a LI-COR Odyssey infrared imaging system (LI-COR, USA). Western blot quantification and analysis was conducted using Image Studio™ Lite (LI-COR Biosciences).

Like-named read-outs stand apart in the source and are kept apart here.

T2 sequence (P60953 1-184 isoform P60953-1 Q61L): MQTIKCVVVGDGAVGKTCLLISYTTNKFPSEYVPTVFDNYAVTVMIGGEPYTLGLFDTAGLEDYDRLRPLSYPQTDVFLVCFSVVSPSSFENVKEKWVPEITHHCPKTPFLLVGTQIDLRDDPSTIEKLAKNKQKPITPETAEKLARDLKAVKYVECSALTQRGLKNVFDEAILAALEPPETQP
T1 sequence (P60953 2-191 isoform P60953-1 Q61L): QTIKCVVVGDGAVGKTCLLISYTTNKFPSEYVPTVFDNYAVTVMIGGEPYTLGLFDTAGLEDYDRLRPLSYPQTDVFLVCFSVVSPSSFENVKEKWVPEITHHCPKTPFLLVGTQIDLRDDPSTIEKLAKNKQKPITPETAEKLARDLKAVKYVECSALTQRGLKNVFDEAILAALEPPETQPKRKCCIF

For the compound `CCN(CC)CCn1c2ccccc2c2nc3ccc([N+](=O)[O-])cc3cc21` [MLS000332963], the EC50 came out at 3.01 µM in the series with MDA-MB-231 cells [1] (confluency), 6.54 µM in the series on MCF7 cells (confluency) and 2.7 µM with MDA-MB-231 cells [2]. The “effect on proliferation” value in the series with MDA-MB-231 cells [1] and in the series with MCF7 cells was “dose-dependent inhibitory effect” in each case. The “activity in double-tagged Cdc42 counter-screen” value at GST-Cdc42-Q61L-His is “inactive”. The “concentration above which precipitates formed” value at His-Cdc42 (MST samples, PBS containing 0.05% Tween-20) is “above 62.5 µM”. For the same compound, the “effect on thermophoretic motion of Cdc42” value at His-Cdc42 is recorded as “did not affect the thermophoretic motion of Cdc42”. Moreover, in the series with MDA-MB-231 cells [2] (50 µM (Fig. S3)), the “effect on cell shape” value was “flatter and spread out more on the plastic”. Also, the “cell migration maximum efficiency” value with MDA-MB-231 cells [2] stood at 39%. The “effect on Cdc42 binding to IQGAP1 in immunoprecipitation” value (shortened to “effect on Cdc42 binding to IQGAP1”) in series [3] is on record as “reduced the binding substantially”.
As for `Cc1cccc(NC(=O)c2c(NC(=O)C(F)(F)F)sc3c2CCCCC3)c1` [NCGC00098561], at GST-Cdc42-Q61L-His, the “activity in double-tagged Cdc42 counter-screen” value is recorded as “not active”. For the same compound, the “effect on thermophoretic motion of Cdc42” value on His-Cdc42 was “did not affect the thermophoretic motion of Cdc42”. Besides, the “effect on Cdc42 binding to IQGAP1” value in series [3] is reported as “reduced the binding substantially”.
By Kd is commonly meant a measure of binding affinity in units of concentration. Consider `CCN1CCN(c2ncc3c(n2)CCN(Cc2cc(Br)cs2)C3)CC1` [NCGC00131308], for which the “effect on proliferation” value with MDA-MB-231 cells [1] and with MCF7 cells was “dose-dependent inhibitory effect” each time. Moreover, the EC50 at GST-Cdc42-Q61L-His (read-out: EC50 in double-tagged Cdc42 counter-screen) is 4.47 µM. In addition, the Kd on His-Cdc42 (read-out: dissociation constant (Kd) for Cdc42) came to 28.1 µM. Also, in the series on MDA-MB-231 cells [2] (Homo sapiens, 50 μM, the highest concentration used, read-out: inhibition of cell migration), the inhibition at 50 µM is 57.7 ± 7.2%. For the same compound, in series [3], the “effect on Cdc42 binding to IQGAP1” value is listed as “reduced the binding substantially”.
Take `CCc1ccccc1Nc1ncnc2c1cnn2-c1ccc(Cl)cc1` [NCGC00138812]: the “effect on proliferation” value in the series on MDA-MB-231 cells [1] and with MCF7 cells was “dose-dependent inhibitory effect” in each case. The EC50 at GST-Cdc42-Q61L-His stood at 6.31 µM; with MDA-MB-231 cells [2] (Homo sapiens) it was 12.9 µM. This compound also came in with a Kd on His-Cdc42 of 96.2 µM. Also, the “cell migration maximum efficiency” value in the series on MDA-MB-231 cells [2] was 20%. For the same compound, in series [3], the “effect on Cdc42 binding to IQGAP1” value was “reduced the binding substantially”.
